Source: ChEMBL document CHEMBL4706545, “Antiproliferative effect of mitochondria-targeting allobetulin 1,2,3-triazolium salt derivatives and their mechanism of inducing apoptosis of cancer cells” (Eur J Med Chem, 2020)
The source made the active and inactive calls. The rule behind the calls is not given here.

Assays:
SGC-7901 [1] = assay: Induction of ROS-mediated apoptosis in human SGC-7901 cells assessed as necrotic cells at 4 uM incubated for 48 hrs by annexin V-PE and 7-AAD staining based flow cytometry analysis (reference value: 0.733 %); format: functional
SGC-7901 [2] = assay: Induction of ROS-mediated apoptosis in human SGC-7901 cells assessed as early apoptotic cells at 4 uM incubated for 48 hrs by annexin V-PE and 7-AAD staining based flow cytometry analysis (reference value: 1.89 %); format: functional
SGC-7901 [3] = assay: Induction of ROS-mediated apoptosis in human SGC-7901 cells assessed as viable cells at 1 uM incubated for 48 hrs by annexin V-PE and 7-AAD staining based flow cytometry analysis (reference value: 93.6 %); format: functional; details: read-out: Activity
SGC-7901 [4] = assay: Induction of apoptosis in human SGC-7901 cells assessed as decrease in PARP incubated for 48 hrs by Western blot analysis; format: functional, cell-based; details: dose 1-4 µM
SGC-7901 [5] = assay: Induction of ROS-mediated apoptosis in human SGC-7901 cells assessed as necrotic cells at 1 uM incubated for 48 hrs by annexin V-PE and 7-AAD staining based flow cytometry analysis (reference value: 0.733 %); format: functional
SGC-7901 [6] = assay: Induction of apoptosis in human SGC-7901 cells assessed as early apoptotic cells at 4 uM incubated for 48 hrs by annexin-V-FITC and PI staining based fluorescence microscopic analysis (reference value: 1.87 %); format: functional
SGC-7901 [7] = assay: Induction of cell cycle arrest in human SGC-7901 cells assessed as accumulation in S phase at 4 uM incubated for 48 hrs by PI staining based flow cytometry analysis (reference value: 31.13 %); format: functional
SGC-7901 [8] = assay: Induction of apoptosis in human SGC-7901 cells assessed as viable cells at 2 uM incubated for 48 hrs by annexin-V-FITC and PI staining based fluorescence microscopic analysis (reference value: 93.8 %); format: functional; details: read-out: Activity
[9] = Selectivity index, ratio of IC50 for cytotoxicity against human HL7702 cells to IC50 for cytotoxicity against human SGC-7901 cells
SGC-7901 [10] = assay: Induction of ROS-mediated apoptosis in human SGC-7901 cells assessed as early apoptotic cells at 1 uM incubated for 48 hrs by annexin V-PE and 7-AAD staining based flow cytometry analysis (reference value: 1.89 %); format: functional
SGC-7901 [11] = assay: Induction of ROS-mediated apoptosis in human SGC-7901 cells assessed as late apoptotic cells at 4 uM incubated for 48 hrs in presence of NAC by annexin V-PE and 7-AAD staining based flow cytometry analysis (reference value: 3.45 %); format: functional
SGC-7901 [12] = assay: Induction of cell cycle arrest in human SGC-7901 cells assessed as accumulation in G2/M phase at 2 uM incubated for 48 hrs by PI staining based flow cytometry analysis (reference value: 11.48 %); format: functional
SGC-7901 [13] = assay: Induction of ROS-mediated apoptosis in human SGC-7901 cells assessed as necrotic cells at 4 uM incubated for 48 hrs in presence of NAC by annexin V-PE and 7-AAD staining based flow cytometry analysis (reference value: 0.623 %); format: functional
SGC-7901 [14] = assay: Induction of ROS-mediated apoptosis in human SGC-7901 cells assessed as viable cells at 4 uM incubated for 48 hrs by annexin V-PE and 7-AAD staining based flow cytometry analysis (reference value: 93.6 %); format: functional; details: read-out: Activity
ECa-109 cell line [15] = assay: Induction of apoptosis in human ECa-109 cells assessed as decrease in caspase-3 incubated for 48 hrs by Western blot analysis; format: functional, cell-based; details: dose 1-4 µM
ECa-109 cell line [16] = assay: Induction of cell cycle arrest in human ECa-109 cells assessed as accumulation in G0/G1 phase at 4 uM incubated for 48 hrs by PI staining based flow cytometry analysis (reference value: 52.28 %); format: functional
ECa-109 cell line [17] = assay: Induction of apoptosis in human ECa-109 cells assessed as early apoptotic cells at 2 uM incubated for 48 hrs by annexin-V-FITC and PI staining based fluorescence microscopic analysis (reference value: 0.971 %); format: functional
ECa-109 cell line [18] = assay: Induction of apoptosis in human ECa-109 cells assessed as concentrated chromatin at 1 to 4 uM incubated for 48 hrs by Hoechst staining based fluorescence microscopic analysis; format: functional, cell-based; details: dose 1-4 µM
ECa-109 cell line [19] = assay: Induction of ROS-mediated apoptosis in human ECa-109 cells assessed as late apoptotic cells at 1 uM incubated for 48 hrs in presence of NAC by annexin V-PE and 7-AAD staining based flow cytometry analysis (reference value: 2.98 %); format: functional
ECa-109 cell line [20] = assay: Induction of ROS-mediated apoptosis in human ECa-109 cells assessed as viable cells at 1 uM incubated for 48 hrs by annexin V-PE and 7-AAD staining based flow cytometry analysis (reference value: 92.7 %); format: functional; details: read-out: Activity
ECa-109 cell line [21] = assay: Induction of apoptosis in human ECa-109 cells assessed as viable cells at 4 uM incubated for 48 hrs by annexin-V-FITC and PI staining based fluorescence microscopic analysis (reference value: 95.8 %); format: functional; details: read-out: Activity
ECa-109 cell line [22] = assay: Induction of apoptosis in human ECa-109 cells at 1 to 4 uM incubated for 48 hrs by AO/PI staining based fluorescence microscopic analysis; format: functional, cell-based; details: dose 1-4 µM
ECa-109 cell line [23] = assay: Induction of apoptosis in human ECa-109 cells assessed as nuclear fragmentation at 1 to 4 uM incubated for 48 hrs by Hoechst staining based fluorescence microscopic analysis; format: functional, cell-based; details: dose 1-4 µM
ECa-109 cell line [24] = assay: Induction of ROS-mediated apoptosis in human ECa-109 cells assessed as viable cells at 1 uM incubated for 48 hrs in presence of NAC by annexin V-PE and 7-AAD staining based flow cytometry analysis (reference value: 94 %); format: functional; details: read-out: Activity
ECa-109 cell line [25] = assay: Induction of apoptosis in human ECa-109 cells assessed as decrease in caspase-9 incubated for 48 hrs by Western blot analysis; format: functional, cell-based; details: dose 1-4 µM
ECa-109 cell line [26] = assay: Induction of ROS-mediated apoptosis in human ECa-109 cells assessed as viable cells at 2 uM incubated for 48 hrs by annexin V-PE and 7-AAD staining based flow cytometry analysis (reference value: 92.7 %); format: functional; details: read-out: Activity
ECa-109 cell line [27] = assay: Induction of ROS-mediated apoptosis in human ECa-109 cells assessed as early apoptotic cells at 4 uM incubated for 48 hrs by annexin V-PE and 7-AAD staining based flow cytometry analysis (reference value: 2.70 %); format: functional
ECa-109 cell line [28] = assay: Induction of apoptosis in human ECa-109 cells assessed as viable cells at 2 uM incubated for 48 hrs by annexin-V-FITC and PI staining based fluorescence microscopic analysis (reference value: 95.8 %); format: functional; details: read-out: Activity
ECa-109 cell line [29] = assay: Induction of apoptosis in human ECa-109 cells assessed as viable cells at 1 uM incubated for 48 hrs by annexin-V-FITC and PI staining based fluorescence microscopic analysis (reference value: 95.8 %); format: functional; details: read-out: Activity
ECa-109 cell line [30] = assay: Induction of apoptosis in human ECa-109 cells assessed as downregulation of Bcl-xl incubated for 48 hrs by Western blot analysis; format: functional, cell-based; details: dose 1-4 µM
ECa-109 cell line [31] = assay: Induction of apoptosis in human ECa-109 cells assessed as early apoptotic cells at 4 uM incubated for 48 hrs by annexin-V-FITC and PI staining based fluorescence microscopic analysis (reference value: 0.971 %); format: functional
ECa-109 cell line [32] = assay: Induction of ROS-mediated apoptosis in human ECa-109 cells assessed as late apoptotic cells at 2 uM incubated for 48 hrs by annexin V-PE and 7-AAD staining based flow cytometry analysis (reference value: 3.89 %); format: functional

C[n+]1nn(Cc2c(F)cccc2Cl)c2c1C[C@]1(C)[C@H]3CC[C@@H]4[C@H]5[C@H]6OC[C@@]5(CCC6(C)C)CC[C@@]4(C)[C@]3(C)CC[C@H]1C2(C)C.[I-]
Activity (SGC-7901 [1]): 0.028%
Activity (SGC-7901 [2]): 0.199%
viability at 1 µM (SGC-7901 [3]): 80.5%
Activity (SGC-7901 [4]): Dose-dependent effect
Activity (SGC-7901 [5]): 0.838%
Activity (SGC-7901 [6]): 2.07%
Activity (SGC-7901 [7]): 22.27%
viability at 2 µM (SGC-7901 [8]): 64.6%
Ratio IC50 [9]: 2.08
Activity (SGC-7901 [10]): 13.7%
Activity (SGC-7901 [11]): 77.8%
Activity (SGC-7901 [12]): 9.6%
Activity (SGC-7901 [13]): 2.66%
viability at 4 µM (SGC-7901 [14]): 0.152%

COc1ccccc1Cn1n[n+](C)c2c1C(C)(C)[C@@H]1CC[C@]3(C)[C@H](CC[C@@H]4[C@H]5[C@H]6OC[C@@]5(CCC6(C)C)CC[C@]43C)[C@@]1(C)C2.[I-]
Activity (ECa-109 cell line [15]): Dose-dependent effect
Activity (ECa-109 cell line [16]): 33.47%
Activity (ECa-109 cell line [17]): 20.5%
Activity (ECa-109 cell line [18]): Active
Activity (ECa-109 cell line [19]): 13.7%
viability at 1 µM (ECa-109 cell line [20]): 66.9%
viability at 4 µM (ECa-109 cell line [21]): 1.26%
Activity (ECa-109 cell line [22]): Active
Activity (ECa-109 cell line [23]): Active
viability at 1 µM (ECa-109 cell line [24]): 76.2%
Activity (ECa-109 cell line [25]): Dose-dependent effect
viability at 2 µM (ECa-109 cell line [26]): 55%
Activity (ECa-109 cell line [27]): 2%
viability at 2 µM (ECa-109 cell line [28]): 55.1%
viability at 1 µM (ECa-109 cell line [29]): 69.1%
Activity (ECa-109 cell line [30]): Dose-dependent effect
Activity (ECa-109 cell line [31]): 2.92%
Activity (ECa-109 cell line [32]): 28.7%
